# Molecular target: T1, NaChBac (Halalkalibacterium halodurans, UniProt Q9KCR8)
# T1 construct: gene BH1501
# T1 sequence (Q9KCR8 1-274): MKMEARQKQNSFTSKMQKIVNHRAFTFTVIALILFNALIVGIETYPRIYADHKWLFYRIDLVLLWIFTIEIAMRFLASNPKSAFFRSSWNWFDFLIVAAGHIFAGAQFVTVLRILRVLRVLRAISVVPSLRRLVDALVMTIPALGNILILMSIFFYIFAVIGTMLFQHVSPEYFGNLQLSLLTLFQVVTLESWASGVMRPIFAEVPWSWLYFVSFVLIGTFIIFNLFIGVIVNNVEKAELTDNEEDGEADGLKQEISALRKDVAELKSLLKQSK
# Test: planar lipid bilayer current recording, reconstituted purified channel
# Assay type: biochemical
# Conditions: block from the intracellular side, reversible on washout; concentration not printed for this test; step from -120 to +60 mV; POPE/POPG bilayer; pH 7.4
compound,measurement,value
CC[N+](CC)(CC)CC(=O)Nc1c(C)cccc1C [lidocaine N-ethyl bromide],"planar lipid bilayer current recording, reconstituted purified channel",It was observed that the current completely dimished (red trace of Fig 3C)

# Reference: paper PMC5708646, “Single-molecule study of full-length NaChBac by planar lipid bilayer recording” (PLoS ONE, 2017)
